# Key:
# [1] = test system: engorged adult female cattle ticks (Boophilus microplus); test: Boophilus microplus injection test (BOOPMI Inj); assay type: in vivo; details: application rate 20 μg/animal; injection into abdomen; assessed after 7 days
# In short: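 DMSO solution of compound (1 μl) injected into the abdomen of 5 engorged adult female ticks, which are then held in a climate-controlled room. After 7 days, efficacy is scored from laying of fertile eggs, with unclear eggs kept until larval hatch (~42 days); 100% means no fertile eggs, 0% all fertile.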
# [2] = test system: adult cat fleas (Ctenocephalides felis); test: Ctenocephalides felis in vitro contact test with adult cat fleas (T1); details: after 48 h
# In short: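 Test compound was dissolved in acetone p.a. (9 mg per 1 ml) and diluted as needed. 250 μl was spread evenly over the inner walls and floor of a 25 ml test tube by rotating on an orbital shaker for 2 h at 30 rpm. Once the solvent evaporated, 5-10 adult Ctenocephalides felis were added. Tubes were capped with a perforated plastic lid and kept horizontal at room temperature and ambient humidity.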
# [3] = test system: caterpillars of the armyworm (Spodoptera frugiperda); test: Spodoptera frugiperda spray test (SPODFR); assay type: in vivo; details: maize leaf discs, after 7 days
# In short: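 Maize leaf discs sprayed with compound in acetone/DMF with alkylaryl polyglycol ether emulsifier (1000 ppm) in water, dried, then infested with armyworm caterpillars. Mortality (%) scored after 7 days; 100% = all caterpillars killed, 0% = none killed.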
# [4] = test system: Tick nymphs (Amblyomma hebraeum); test: Amblyomma hebraeum test (AMBYHE), tick nymphs immersed; assay type: in vivo; details: application rate 100 ppm; immersed one minute; after 42 days
# Experimental: A. Amblyomma hebaraeum Test (AMBYHE)
# Solvent: dimethyl sulphoxide
# To produce a suitable preparation of active compound, 10 mg of active compound are mixed with 0.5 ml of dimethyl sulfoxide, and the concentrate is diluted with water to the desired concentration.
# Tick nymphs (Amblyomma hebraeum) are placed into perforated plastic beakers and immersed in the desired concentration for one minute. The ticks are transferred on filter paper into a Petri dish and stored in a climate-controlled cabinet.
# After 42 days, the kill in % is determined. 100% means that all of the ticks have been killed; 0% means that none of the ticks have been killed.
# [5] = test system: adult dog ticks (Rhipicephalus sanguineus); test: Rhipicephalus sanguineus in vitro contact test with adult brown dog ticks (T2); details: after 48 h
# In short: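 Acetone solutions coated onto test tube walls and floor, giving 5 μg/cm^2 at 900 ppm. Five to ten adult ticks held per tube in the dark at room temperature for 48 h, then heated at 45-50° C for up to 5 min; efficacy is the percentage of dead or moribund ticks unable to climb away.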
# [6] = test system: adult houseflies (Musca domestica); test: Musca domestica test (MUSCDO); assay type: in vivo; details: application rate 100 ppm; after 2 days
# In short: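 Compound dissolved in DMSO and diluted with water to the test concentration, applied with sugar solution on a sponge; 10 adult houseflies per vessel. Mortality scored after 2 days as % kill (100% all dead, 0% none).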
# [7] = test system: adult castor bean ticks (Ixodes ricinus); test: Ixodes ricinus in vitro contact test with adult castor bean ticks (T3); details: after 48 h
# Experimental: T3. Ixodes ricinus-in vitro Contact Tests with Adult Castor Bean Ticks
# For the coating of the test tubes, initially 9 mg of active compound are dissolved in 1 ml of acetone p.a. and then diluted with acetone p.a. to the desired concentration. By turning and rocking on an orbital shaker (2 h of rocking rotation at 30 rpm), 250 μl of the solution are distributed homogeneously on the internal walls and the floor of a 25 ml test tube. At 900 ppm active compound solution and 44.7 cm^2 internal surface, an area dose of 5 μg/cm^2 is achieved for homogeneous distribution.
# After evaporation of the solvent, the tubes are populated with 5-10 adult castor bean ticks (Ixodes ricinus), sealed with a perforated plastic lid and incubated in a horizontal position in the dark at 22° C. and 90% humidity in a climate-controlled cabinet. After 48 h, the efficacy is determined. To this end, the ticks are knocked to the floor of the tube and incubated on a hotplate at 45-50° C. for at most 5 min. Ticks which remain motionless on the floor or move in an uncoordinated manner such that they are not able to deliberately avoid the heat by climbing upwards are considered to be dead or moribund.
# An efficacy of 100% means that all ticks were dead or moribund. 0% efficacy means that none of the ticks had been damaged.
# [8] = test system: adult cat fleas (Ctenocephalides felis); test: Ctenocephalides felis oral test (CTECFE); assay type: in vivo; details: application rate 100 ppm in citrated cattle blood; after 2 days
# In short: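 About 20 unfed adult cat fleas fed through parafilm membrane on citrated cattle blood containing compound (DMSO stock diluted in blood to test concentration). Kill % scored after 2 days (100% = all fleas dead).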
# [9] = test system: larvae of the mustard beetle (Phaedon cochleariae); test: Phaedon cochleariae spray test (PHAECO); assay type: in vivo; details: Chinese cabbage leaf discs, after 7 days
# In short: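 Compound dissolved in acetone/dimethylformamide with alkylaryl polyglycol ether emulsifier, made up in water containing 1000 ppm emulsifier, then diluted to test concentrations and sprayed against mustard beetle larvae. Efficacy (% larvae killed) scored after 7 days.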
Compound,efficacy (laying of fertile eggs) [1],efficacy (dead or moribund fleas) ([2]; application rate 1 μg/cm^2),efficacy (dead or moribund fleas) ([2]; application rate 5 μg/cm^2),efficacy in % ([3]; application rate 100 g/ha),efficacy (kill in %) [4],efficacy (dead or moribund ticks) ([5]; application rate 1 μg/cm^2),efficacy (dead or moribund ticks) ([5]; application rate 5 μg/cm^2),efficacy (kill in %) [6],efficacy (dead or moribund ticks) ([7]; application rate 1 μg/cm^2),efficacy (dead or moribund ticks) ([7]; application rate 5 μg/cm^2),efficacy (kill in %) [8],efficacy in % ([9]; application rate 100 g/ha),efficacy in % ([3]; application rate 500 g/ha),efficacy in % ([9]; application rate 500 g/ha)
Cn1nc(C(F)(F)C(F)(F)F)c(C(F)(F)F)c1-n1cc(-c2ccc(F)c(C(=O)NC3CC3)c2)cn1 [Ic-37],100%,100%,100%,100%,100%,100%,100%,100%,100%,100%,100%,100%,–,–
Cn1nc(C(F)(F)C(F)(F)F)c(C(F)(F)F)c1-n1cc(-c2ccc(Cl)c(C(=O)NCC(F)(F)F)c2)cn1 [Ic-23],100%,100%,100%,100%,100%,100%,100%,100%,100%,100%,100%,100%,–,–
Cn1nc(C(F)(F)C(F)(F)F)c(C(F)(F)F)c1-n1cc(-c2ccc(Cl)c(C(=O)NC3CC3F)c2)cn1 (stereo not drawn) [Ic-81],100%,100%,100%,100%,–,100%,100%,100%,100%,100%,100%,100%,–,–
Cn1nc(C(F)(F)C(F)(F)F)c(C(F)(F)F)c1-n1cc(-c2ccc([N+](=O)[O-])c(C(=O)NC3CC3)c2)cn1 [Ic-66],100%,100%,100%,100%,–,100%,100%,100%,–,–,100%,100%,–,–
Cn1nc(C(F)(F)C(F)(F)F)c(C(F)(F)F)c1-n1cc(-c2ccc(Cl)c(C(=O)NCC(F)F)c2)cn1 [Ic-78],100%,100%,100%,100%,–,100%,100%,100%,–,–,100%,100%,–,–
CCn1nc(C(F)(F)C(F)(F)F)c(C(F)(F)F)c1-n1cc(-c2ccc(Cl)c(C(=O)NC3CC3)c2)cn1 [Ic-16],100%,100%,100%,100%,100%,100%,100%,100%,100%,100%,100%,100%,–,–
"Cn1nc(C(F)(F)C(F)(F)F)c(C(F)(F)F)c1-n1cc(-c2ccc(Cl)c(C(=O)NC3CC3)c2)cn1 [Ic-1, 2-Chloro-N-cyclopropyl-5-[2′-methyl-5′-(pentafluoroethyl)-4′-(trifluoromethyl)-2′H-1,3′-bipyrazol-4-yl]benzamide]",100%,100%,100%,–,100%,100%,100%,100%,100%,100%,100%,–,100%,100%
Cn1nc(C(F)(F)C(F)(F)F)c(C(F)(F)F)c1-n1cc(-c2cc(F)c(Cl)c(C(=O)NC3CC3)c2)cn1 [Ic-24],100%,100%,100%,–,100%,100%,100%,100%,–,–,100%,–,100%,100%
Cn1nc(C(F)(F)C(F)(F)F)c(C(F)(F)F)c1-n1cc(-c2cc(F)c(Cl)c(C(=O)NC3(C#N)CC3)c2)cn1 [Ic-27],100%,100%,100%,–,100%,100%,100%,100%,–,–,100%,–,100%,100%
Cn1nc(C(F)(F)C(F)(F)F)c(C(F)(F)F)c1-n1cc(-c2ccc(F)c(C(=O)NC3(C#N)CC3)c2)cn1 [Ic-36],100%,100%,100%,100%,100%,100%,100%,100%,–,–,100%,100%,–,–
Cc1ncc(-c2cnn(-c3c(C(F)(F)F)c(C(F)(F)C(F)(F)F)nn3C)c2)cc1C(=O)NC1CC1 [Ic-84],100%,100%,100%,–,100%,100%,100%,100%,100%,100%,100%,–,100%,100%
CN(C(=O)c1cc(-c2cnn(-c3c(C(F)(F)F)c(C(F)(F)C(F)(F)F)nn3C)c2)ccc1Cl)C1(C#N)CC1 [Ic-96],100%,100%,100%,100%,–,100%,100%,100%,–,–,100%,100%,–,–
Cn1nc(C(F)(F)C(F)(F)F)c(C(F)(F)F)c1-n1cc(-c2ccc(Br)c(C(=O)NC3(C#N)CC3)c2)cn1 [Ic-34],100%,100%,100%,100%,100%,80%,100%,100%,–,–,100%,100%,–,–
